According to patent US11957759B1, “Rapidly accelerated fibrosarcoma (RAF) degrading compounds and associated methods of use” (Arvinas Operations, Inc., priority 2022, dated 2024):

How the values were obtained:
B-RAF G466V = target: T1, B-RAF G466V (Homo sapiens, UniProt P15056, G466V); assay: Target protein degradation, assay B: T-Rex 293 cells, HA-B-RAF_G466V, 96 well format; assay type: cell-based; conditions: T-Rex 293 HA-B-RAF_G466V cells, 24 hours, Examples 1-82
T1 construct: expressed in transfected cells; host or cells: T-Rex 293 cells (Invitrogen #R71007)
T1 sequence (P15056 whole entry G466V): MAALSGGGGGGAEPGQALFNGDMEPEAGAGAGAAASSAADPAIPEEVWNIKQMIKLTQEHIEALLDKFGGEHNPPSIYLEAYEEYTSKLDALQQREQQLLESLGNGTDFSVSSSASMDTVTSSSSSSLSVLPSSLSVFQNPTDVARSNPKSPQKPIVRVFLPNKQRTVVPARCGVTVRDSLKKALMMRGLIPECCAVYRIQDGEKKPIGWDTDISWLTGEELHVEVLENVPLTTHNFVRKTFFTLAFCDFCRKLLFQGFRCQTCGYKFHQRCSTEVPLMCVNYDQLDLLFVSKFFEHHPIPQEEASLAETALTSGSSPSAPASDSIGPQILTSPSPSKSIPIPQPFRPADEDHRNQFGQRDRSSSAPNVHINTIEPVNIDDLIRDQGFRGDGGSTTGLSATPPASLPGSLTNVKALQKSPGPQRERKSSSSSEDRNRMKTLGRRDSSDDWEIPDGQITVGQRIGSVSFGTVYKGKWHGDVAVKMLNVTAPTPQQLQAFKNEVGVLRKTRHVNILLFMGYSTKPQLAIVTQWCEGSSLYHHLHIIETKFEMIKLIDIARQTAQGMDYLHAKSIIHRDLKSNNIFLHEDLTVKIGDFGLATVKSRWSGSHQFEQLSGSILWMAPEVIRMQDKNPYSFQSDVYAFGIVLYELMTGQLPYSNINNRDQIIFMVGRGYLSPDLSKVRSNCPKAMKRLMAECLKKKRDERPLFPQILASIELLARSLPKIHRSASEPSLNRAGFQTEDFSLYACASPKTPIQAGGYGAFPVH
Method in brief: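 T-Rex 293 cells stably carrying doxycycline-inducible HA-B-RAF G466V (0.75 ng/mL doxycycline) treated 24 h at 37 °C with compound, 30 nM to 3 pM final, 0.1% DMSO. Fixed, permeabilised, anti-HA immunofluorescence quantified by high-content imaging; DC50 and Dmax (% of control) derived.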

B-RAF V600E = target: T2, B-RAF V600E (Homo sapiens, UniProt P15056, V600E); assay: Target protein degradation, assay A: T-Rex 293 cells, HA-B-RAF_V600E, 96 well format; assay type: cell-based; conditions: T-Rex 293 HA-B-RAF_V600E cells, 24 hours, Examples 1-82
T2 construct: expressed in transfected cells; host or cells: T-Rex 293 cells (Invitrogen #R71007)
T2 sequence (P15056 whole entry V600E): as the sequence (P15056 whole entry G466V) above, with V466G, V600E counted along it
Method in brief: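 T-Rex 293 cells stably expressing doxycycline-inducible HA-B-RAF V600E (1 ng/mL doxycycline) treated 24 h at 37 °C with compound, final 1 μM to 0.1 nM in 0.1% DMSO. Fixed, permeabilized cells immunostained for HA and imaged by high-content microscopy; DC50 and Dmax (% of control) reported.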

| SMILES | DC50 (B-RAF G466V) | Dmax (B-RAF G466V) | DC50 (B-RAF V600E) | Dmax (B-RAF V600E) |
| --- | --- | --- | --- | --- |
| N#Cc1c(NS(=O)(=O)N2CC[C@@H](F)C2)ccc(F)c1Oc1ccc2ncn(-c3ccc(N4CCN(CC5CCN(c6cccc7c6ccn7C6CCC(=O)NC6=O)CC5)CC4)cc3)c(=O)c2c1 (stereo partly drawn) [Example 74, (3R)—N-{2-cyano-3-[(3-{4-[4-({1-[1-(2,6-dioxopiperidin-3-yl)-1H-indol-4-yl]piperidin-4-yl}methyl)piperazin-1-yl]phenyl}-4-oxo-3,4-dihydroquinazolin-6-yl)oxy]-4-fluorophenyl}-3-fluoropyrrolidine-1-sulfonamide] | 1 to 10 nM | ≤ 35% | 50 to 500 nM | 35 to 70% |
| N#Cc1c(NS(=O)(=O)N2CC[C@@H](F)C2)ccc(F)c1Oc1ccc2ncn(-c3ccc(N4CCN(CC5CN(c6ccc7c(c6)CN([C@H]6CCC(=O)NC6=O)C7=O)C5)CC4)cc3)c(=O)c2c1 [Example 76, (3R)—N-(2-cyano-3-{[3-(4-{4-[(1-{2-[(3S)-2,6-dioxopiperidin-3-yl]-1-oxo-2,3-dihydro-1H-isoindol-5-yl}azetidin-3-yl)methyl]piperazin-1-yl}phenyl)-4-oxo-3,4-dihydroquinazolin-6-yl]oxy}-4-fluorophenyl)-3-fluoropyrrolidine-1-sulfonamide] | 1 to 10 nM | ≤ 35% | 5 to 50 nM | 35 to 70% |
| N#Cc1c(NS(=O)(=O)N2CC[C@@H](F)C2)ccc(F)c1Oc1ccc2ncn(-c3ccc(N4CCN(CC5CCN(c6ccc7c(c6)CN([C@H]6CCC(=O)NC6=O)C7=O)CC5)CC4)cc3)c(=O)c2c1 [Example 77, (3R)—N-(2-cyano-3-{[3-(4-{4-[(1-{2-[(3S)-2,6-dioxopiperidin-3-yl]-1-oxo-2,3-dihydro-1H-isoindol-5-yl}piperidin-4-yl)methyl]piperazin-1-yl}phenyl)-4-oxo-3,4-dihydroquinazolin-6-yl]oxy}-4-fluorophenyl)-3-fluoropyrrolidine-1-sulfonamide] | 1 to 10 nM | 35 to 70% | 50 to 500 nM | 35 to 70% |
| Cn1c(=O)n(C2CCC(=O)NC2=O)c2ccc(N3CCC(CN4CCN(c5ccc(-n6cnc7ccc(Oc8c(F)ccc(NS(=O)(=O)N9CC[C@@H](F)C9)c8C#N)cc7c6=O)cc5)CC4)CC3)cc21 (stereo partly drawn) [Example 78, (3R)—N-{2-cyano-3-[(3-{4-[4-({1-[1-(2,6-dioxopiperidin-3-yl)-3-methyl-2-oxo-2,3-dihydro-1H-1,3-benzodiazol-5-yl]piperidin-4-yl}methyl)piperazin-1-yl]phenyl}-4-oxo-3,4-dihydroquinazolin-6-yl)oxy]-4-fluorophenyl}-3-fluoropyrrolidine-1-sulfonamide] | 1 to 10 nM | 35 to 70% | 5 to 50 nM | 35 to 70% |
| N#Cc1c(NS(=O)(=O)N2CC[C@@H](F)C2)ccc(F)c1Oc1ccc2ncn(-c3ccc(N4CCC(OC5CCN(c6ccc7c(c6)CN(C6CCC(=O)NC6=O)C7=O)CC5)CC4)cc3)c(=O)c2c1 (stereo partly drawn) [Example 82, (3R)—N-{2-cyano-3-[(3-{4-[4-({1-[2-(2,6-dioxopiperidin-3-yl)-1-oxo-2,3-dihydro-1H-isoindol-5-yl]piperidin-4-yl}oxy)piperidin-1-yl]phenyl}-4-oxo-3,4-dihydroquinazolin-6-yl)oxy]-4-fluorophenyl}-3-fluoropyrrolidine-1-sulfonamide] | 1 to 10 nM | ≤ 35% | 50 to 500 nM | 35 to 70% |

The next lines start with the values.

| DC50 (B-RAF G466V) | Dmax (B-RAF G466V) | DC50 (B-RAF V600E) | Dmax (B-RAF V600E) | SMILES |
| --- | --- | --- | --- | --- |
| 1 to 10 nM | ≤ 35% | 50 to 500 nM | 35 to 70% | N#Cc1c(NS(=O)(=O)N2CC[C@@H](F)C2)ccc(F)c1Oc1ccc2ncn(-c3ccn(C4CCN(CC5CCN(c6ccc7c(c6)CN(C6CCC(=O)NC6=O)C7=O)CC5)CC4)n3)c(=O)c2c1 (stereo partly drawn) [Example 75, (3R)—N-{2-cyano-3-[(3-{1-[1-({1-[2-(2,6-dioxopiperidin-3-yl)-1-oxo-2,3-dihydro-1H-isoindol-5-yl]piperidin-4-yl}methyl)piperidin-4-yl]-1H-pyrazol-3-yl}-4-oxo-3,4-dihydroquinazolin-6-yl)oxy]-4-fluorophenyl}-3-fluoropyrrolidine-1-sulfonamide] |
| ≤ 1 nM | 35 to 70% | 50 to 500 nM | 35 to 70% | N#Cc1c(NS(=O)(=O)N2CC[C@@H](F)C2)ccc(F)c1Oc1ccc2ncn(-c3ccc(N4CCC(CN5CCC(c6ccc7c(c6F)CN(C6CCC(=O)NC6=O)C7=O)CC5)CC4)cc3)c(=O)c2c1 (stereo partly drawn) [Example 79, (3R)—N-{2-cyano-3-[(3-{4-[4-({4-[2-(2,6-dioxopiperidin-3-yl)-4-fluoro-1-oxo-2,3-dihydro-1H-isoindol-5-yl]piperidin-1-yl}methyl)piperidin-1-yl]phenyl}-4-oxo-3,4-dihydroquinazolin-6-yl)oxy]-4-fluorophenyl}-3-fluoropyrrolidine-1-sulfonamide] |
